The values below come from publication PMC3428805 (Journal of Medicinal Chemistry, 2012).

The subject of one series is K562 cells. Kind of series: cells. The series is classed as cell-based. The note with it: Homo sapiens, K562, 72 h.
The nature of series [1]: Human microsomal stability. The note with it: human microsomes, 3 µM.
Series [2] in a line: Mouse microsomal stability. The note with it: mouse microsomes, 3 µM.
The nature of series [3]: Human hepatocyte stability. The note with it: cryopreserved hepatocytes, 3 µM.
The nature of series [4]: log P and pKa, potentiometric method.
Series [5] is described as follows: Human plasma protein binding, equilibrium dialysis. The note with it: 50%. On the technique in general: In equilibrium dialysis free small molecules cross a membrane that holds back macromolecules.
Series [6] in a line: Evaluation of acid stability at pH = 1 by LC-HRMS. The series is classed as physicochemical. The note with it: for hydrolysis / decomposition at pH 1.0: pH 1.0, in words.
Another series concerns the target T1, Eg5 (Homo sapiens, UniProt P52732).
T1 sequence (P52732 1-368): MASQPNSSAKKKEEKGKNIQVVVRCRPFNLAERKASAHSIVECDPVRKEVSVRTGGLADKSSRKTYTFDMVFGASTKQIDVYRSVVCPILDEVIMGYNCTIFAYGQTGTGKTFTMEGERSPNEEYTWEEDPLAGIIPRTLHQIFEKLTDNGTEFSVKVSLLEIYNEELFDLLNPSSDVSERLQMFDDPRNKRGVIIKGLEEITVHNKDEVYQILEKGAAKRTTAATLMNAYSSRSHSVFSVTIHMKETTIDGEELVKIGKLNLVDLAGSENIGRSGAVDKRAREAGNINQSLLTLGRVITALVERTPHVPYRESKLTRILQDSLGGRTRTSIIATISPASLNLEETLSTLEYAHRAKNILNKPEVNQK

The nature of series [7]: Parallel artificial membrane permeability assay. The series is classed as in vitro ADME. The note with it: passive permeability.
The nature of another series: log D7.4. The note with it: n-octanol/buffer, pH 7.4.
The mark [8] stands for this setting: calculated from Ki^app of basal ATPase inhibition.

Each structure is given as a SMILES string. Read-outs that look alike come from different tables or passages of the source.

As a reminder, the GI50 is the concentration at which growth is held to half of that of the control. On to `Cc1ccc(C(CCC(N)C(=O)O)(c2ccccc2)c2ccccc2)cc1` (racemic) [rac-32, 2-Amino-5,5-diphenyl-5-(4-methylphenyl)pentanoic acid], for which the GI50 in the series with K562 cells (read-out: K562 cells, GI50, 72 h, Alamar blue) came out at 0.098 ± 0.005 µM.
By pKa is commonly meant the negative logarithm of the acid dissociation constant. A high value points to a group that holds its proton tightly. As to `Cc1cccc(C(CC[C@@H](N)C(=O)O)(c2ccccc2)c2ccccc2)c1` [(R)-29], the GI50 in the series on K562 cells (read-out: K562 cells, GI50) was determined as 0.091 ± 0.009 µM. Besides, the “microsomal stability, Clint, human” value in [1] is listed as “stable”. Moreover, the “microsomal stability, Clint, mice” value in [2] is “stable”. Moreover, in [3], the “human hepatocytes, intrinsic clearance” value is listed as “stable”. Also, the values for the pKa in [4] (pKa 1) and in series [4] (pKa 2) were 9.07 and 2.55, respectively. For the same compound, in series [5], the recovery at 5 µM was 50.1%.
`Cc1cccc(C(CC[C@H](N)C(=O)O)(c2ccccc2)c2ccccc2)c1` [(S)-29]: the 50% growth inhibitory concentration (GI50) with K562 cells (read-out: K562 cells, GI50) stood at 0.128 ± 0.015 µM. In series [1], the “microsomal stability, Clint, human” value was “stable”. The “microsomal stability, Clint, mice” value in series [2] is on record as “stable”. For the same compound, in series [3], the “human hepatocytes, intrinsic clearance” value is reported as “stable”. The pKa stood at 9.07 in series [4] (pKa 1) and 2.55 in series [4] (pKa 2). This compound also registered a recovery at 5 µM in series [5] of 52.3%.
Take `N[C@@H](CSC(c1ccccc1)(c1ccccc1)c1ccccc1)C(=O)O` [compound 1, S-trityl-L-cysteine, reference compound]: in series [6] (pH 1.0, 0-24 h, LC-HRMS), the “t1/2, acid stability” value is “stable”.
On Eg5, `NCCSC(c1ccccc1)(c1ccccc1)c1ccccc1` [compound 2, 2-(Tritylsulfanyl)ethanamine] had a ligand efficiency of 0.39.
Consider `NCCOC(c1ccccc1)(c1ccccc1)c1ccccc1` [compound 6, 2-(Trityloxy)ethanamine], for which the “hydrolysis / decomposition at pH 1.0” value in series [6] is “decomposed after 16 h”.
In the case of `N[C@@H](CNC(c1ccccc1)(c1ccccc1)c1ccccc1)C(=O)O` [compound 7, (2 S)-2-Amino-3-(tritylamino)propanoic acid], the “hydrolysis / decomposition at pH 1.0” value in [6] is recorded as “completely hydrolyzed”.
Take `NCCNC(c1ccccc1)(c1ccccc1)c1ccccc1` [compound 8, N-Tritylethane-1,2-diamine]: the ligand efficiency at Eg5 is listed as 0.33. In [6], the “hydrolysis / decomposition at pH 1.0” value is given as “completely hydrolyzed”.
Consider `NCCCC(c1ccccc1)(c1ccccc1)c1ccccc1` [compound 10, 4,4,4-Triphenylbutan-1-amine], for which the “stability at pH 1.0” value in series [6] (5 days at pH 1.0) is “stable”.
`NCCSC(c1ccccc1)(c1ccccc1)c1cccc(F)c1` [compound 12, 2-(((3-Fluorophenyl)(diphenyl)methyl)sulfanyl)ethanamine]: the ligand efficiency on Eg5 (setting [8]) is reported as 0.36.
The same measure, in the same setting: in the case of `N[C@@H](CSC(c1ccccc1)(c1ccccc1)c1cccc(Cl)c1)C(=O)O` [compound 13, (2 R)-2-Amino-3-(((3-chloroxyphenyl)(diphenyl)methyl)sulfanyl)propanoic acid] it was 0.36; in that of `NCCSC(c1ccccc1)(c1ccccc1)c1cccc(Cl)c1` [compound 14, 2-(((3-Chlorophenyl)(diphenyl)methyl)sulfanyl)ethanamine], 0.37.
On the same count and under the same terms, in the case of `COc1cccc(C(SCCN)(c2ccccc2)c2ccccc2)c1` [compound 21, 2-(((3-Methoxyphenyl)(diphenyl)methyl)sulfanyl)ethanamine] it was 0.37.
With `N[C@@H](CSC(c1ccccc1)(c1ccccc1)c1cccc(O)c1)C(=O)O` [compound 35, (2 R)-2-Amino-3-(((3-hydroxyphenyl)(diphenyl)methyl)sulfanyl)propanoic acid], the “PAMPA Papp” value in series [7] is “no permeability recorded”.
For orientation: logD means the decadic logarithm of the distribution of all forms, ionised or not, between an organic phase and buffer at a given pH. Read a low logD as lower lipophilicity. Regarding `NC(=O)c1cccc(C(SC[C@H](N)C(=O)O)(c2ccccc2)c2ccccc2)c1` [compound 41, (R)-2-amino-3-(((3-carbamoylphenyl)diphenylmethyl)sulfanyl)propanoic acid], the “PAMPA Papp” value in series [7] is reported as “no membrane diffusion detected”. Besides, the logD in the series “log D7.4” was 1.13.
On to `Cc1ccc(C(=O)N(CCCN)[C@@H](c2nc3cc(Cl)ccc3c(=O)n2Cc2ccccc2)C(C)C)cc1` [compound 54, ispinesib, reference compound], for which the “microsomal stability, Clint, human” value in series [1] is “stable”. In addition, in series [2], the “microsomal stability, Clint, mice” value is given as “stable”. In addition, the recovery at 5 µM in [5] came out at 50.6%.
